# Numbered stars: 1 amine (or outer) side, 2 acyl side, 3 side chain; on linkers, the order of the positions; unused ones are H or OH. Bridge positions count the residues as written; N and C are the ends. Square brackets hold non-standard residues; d marks the D form. Peptide text beside a SMILES is read from it. I, II: the chains in the order shown. 2Nal = N[C@@H](Cc1ccc2ccccc2c1)C(=O)O; Diglycolyl = O=C(COCC(=O)[*:2])[*:1]; NMeR = CN[C@@H](CCCNC(=N)N)C(=O)O; Pen = CC(C)(S)[C@H](N)C(=O)O
# Legend:
# [1] = Dithiothreitol (DTT) Redox Stability Assay; assay type: physicochemical; conditions: Table 4-C, t1/2, 0.5 mM DTT
# Method: For each peptide tested, the DTT stability assay was conducted by adding 5 μl of a 10 mM peptide stock solution in DMSO to 1 ml of 100 mM Tris-Cl, pH 7.5 (final peptide concentration is 50 μM). At time 0 min, 5 ul of a freshly thawed 100 mM DTT solution was added to the incubation tube containing the peptide, such that the final DTT concentration was 0.5 mM. The reactions were incubated at room temperature. At different time points up to 120 minutes (20 min, 40 min, 80 min, 120 min), 50 ul aliquots were removed, and the reaction was quenched by adding 10 μl of 5M acetic acid. To measure disappearance of the parent peptide, the quenched samples (30 μl) were analyzed by reverse phase HPLC and UV absorbance at 220 nm. The fraction oxidized remaining was graphed versus time, and half-lives were calculated by fitting to a first-order exponential decay equation using Excel.
# Intestinal Wash Assay = assay type: in vitro ADME; set-up: dose or concentration left out as unconfirmed; conditions: rat, rat intestinal wash fluid (small intestine); Table 4-C, t1/2
# Method: Intestinal wash assay solution was prepared from rats fasted for at least 6 hours prior. The animals were euthanized and a midline incision was made from the point of the jaw to the pubis. The abdomen and chest were opened by making 2 incisions through the anterior chest wall on either side. Hemostats were used to clamp off both ends of the animal's stomach—where the esophagus meets the stomach and where the stomach meets the duodenum. A hemostat was also used to clamp 2-3 cm down the intestine from where the stomach meets the duodenum.
# Intestinal wash assay solution was prepared by separating 20 cm of the small intestine from the body. Once separated 20 cm, the end was clamped with a hemostat and the section cut from the body, leaving the hemostats in place on the removed section. 1 mL of chilled saline was drawn up with a 1 mL syringe. One end of the intestine was held up and the clamp removed. Approximately 2-2.5 cm of the gavage needle was inserted into the intestine, and the saline was slowly injected. The fluid was massaged down the length of the intestine using gloved fingers. The gavage needle was removed and the clamp was replaced on the end of the intestine. The intestine was sat straight and a q-tip was run firmly up and down the length of the outside of the intestine approximately 3-6 times to mix the enzymes with the saline. One end of the intestine was held up and some of the fluid was carefully moved at the top down. The clamp was removed and that end of the intestine was set into a small weigh boat on ice. The other end of the intestine was carefully picked up and held vertically. Gloved fingers were gently run down it to squeeze the fluid into the container. The previous steps saline injection and fluid procurement steps were repeated twice using only 0.5 mL of chilled saline. The sample was pipetted from the weigh boat into a centrifuge tube and placed on ice. All intestinal wash samples were spun down in a cold centrifuge at 12,000×g for 10 minutes. The supernatant from the top of each centrifuged sample was pipetted into cryotubes, and kept on ice until use.
# Intestinal wash assays were performed using intestinal wash assay solution prepared as described above. A sufficient amount of rat intestinal wash was thawed. For each sample, 200 uL of rat intestinal wash fluid was pipetted into 1.5 mL Eppendorf tubes (number of tubes for experiment=number of test peptides×N). The tubes were pre-incubated for about 10 minutes in a water bath at 37° C.
# Peptide working solutions ([…]) were prepared by combining 2 μl of 10 mM DMSO stock with 128 μl 100 mM Tris pH 7.5.
# Peptide quench solvent (50% ACN-50% MeOH-5% Formic Acid)+IS (5 ug/ml; 1 ul of 10 mg/mL IS per 2 mL quench solvent) was prepare and a quench plate prepared and placed on ice. 200 ul of quench solution was added to each well of the quench plate for T=0, 10, 20, 30, 60 and 180 min collection.
# For each test sample and a positive control, 30 ul of peptide working solution was added to a tube of intestinal wash fluid. The tube was gently vortexed and 30 ul was immediately removed and quenched in T=0 well of quench plate (pipetted directly into the quench solution). This well was covered tightly to prevent evaporation. 30 ul aliquots were removed at T=10 min, T=20 min, T=30 min, T=60 min, and T=180 min, and quenched. When all time points were collected, the quench plate was centrifuged at 10,000 rpm for 10 minutes. 150 uL of each supernatant was transferred to a polypropylene 96-well collection plate. 300 ul Mobile Phase A was added to each collection, and LC/MS/MS analysis was performed to determine the amount or concentration of peptide remaining in each test sample and positive control.
# Plasma Stability Assay = assay type: in vitro ADME; conditions: rat, Table 4-C, t1/2
# Method: 0.5 mL of rat plasma (one tube per peptide, volume depends on how many time points are to be collected, 50 μL per time point) was added to each well of a 96-well polypropylene plate, and the tubes were incubated in a heated water bath, preset to 37° C. with gentle shaking. 1 μL of 10 mM peptide stock solution was added to each tub, and then 200 μL of Acetonitrile w/0.1% Formic Acid was added to each tube (1:4). Samples were collected at the following time points: 0, 10, 30, 45, 60, 120, 180 mins. When all time points were collected, the plate was centrifuged at 5000 rpm for 5 mins. LCM analysis was performed by pipetting 100 μL of each sample to appropriate well of a 96-well deep plate. 100 μL of an internal standard peptide (1 ug/mL) was added in Mobile Phase A to each well. The plate was vortexed and injected
SMILES,DTT Min [1] [min],half-life (Intestinal Wash Assay) [h],half-life at 20 μM (Plasma Stability Assay) [h]
"CC(=O)N[C@H]1CSSC[C@@H](C(=O)NCC(=O)N[C@@H](CCC(=O)O)C(N)=O)NC(=O)[C@H](CC(C)C)NC(=O)[C@H]([C@@H](C)O)NC(=O)[C@H](CC(=O)O)NC(=O)[C@H](CO)NC(=O)[C@H](CCCNC(=N)N)NC1=O [compound 194, Ac-C-R-S-D-T-L-C-G-E-NH2] (Ac-CRSDTLCGE-NH2; disulfide 1-7)",5.5,,
"CC(=O)N[C@H]1CSSC[C@@H](C(N)=O)NC(=O)[C@H](CC(C)C)NC(=O)[C@H]([C@@H](C)O)NC(=O)[C@H](CC(=O)O)NC(=O)[C@H](CO)NC(=O)[C@H](CCCNC(=N)N)NC1=O [compound 195, Ac-C-R-S-D-T-L-C-NH2] (Ac-CRSDTLC-NH2; disulfide 1-7)",4.7,,
"CC(=O)N[C@H]1CSSC[C@@H](C(=O)NCC(=O)N[C@@H](CCC(=O)O)C(N)=O)NC(=O)[C@H](CC(C)C)NC(=O)[C@H]([C@@H](C)O)NC(=O)[C@H](CC(=O)O)NC(=O)[C@H](CO)NC(=O)[C@H](CCCNC(=N)N)N(C)C1=O [compound 198, Ac-C-N-Me-R-S-D-T-L-C-G-E-NH2] (Ac-C[NMeR]SDTLCGE-NH2; disulfide 1-7)",4.5,0.5,
"CC(=O)N[C@H]1CSSC[C@@H](C(=O)NCC(=O)N[C@@H](CCC(=O)O)C(=O)N[C@@H](CCCCN)C(=O)O)NC(=O)[C@H](CC(C)C)NC(=O)[C@H]([C@@H](C)O)NC(=O)[C@H](CC(=O)O)NC(=O)[C@H](CO)NC(=O)[C@H](CCCNC(=N)N)N(C)C1=O [compound 199, Ac-C-N-Me-R-S-D-T-L-C-G-E-K-OH] (Ac-C[NMeR]SDTLCGEK-OH; disulfide 1-7)",,,1.35
"CC(=O)N[C@H]1CSSC[C@@H](C(=O)NCC(=O)N[C@@H](CCC(=O)O)C(=O)N[C@@H](CCCCNC(=O)COCC(=O)NCCCC[C@H](NC(=O)[C@H](CCC(=O)O)NC(=O)CNC(=O)[C@@H]2CSSC[C@H](NC(C)=O)C(=O)N(C)[C@@H](CCCNC(=N)N)C(=O)N[C@@H](CO)C(=O)N[C@@H](CC(=O)O)C(=O)N[C@@H]([C@@H](C)O)C(=O)N[C@@H](CC(C)C)C(=O)N2)C(=O)O)C(=O)O)NC(=O)[C@H](CC(C)C)NC(=O)[C@H]([C@@H](C)O)NC(=O)[C@H](CC(=O)O)NC(=O)[C@H](CO)NC(=O)[C@H](CCCNC(=N)N)N(C)C1=O [compound 201, (Ac-C-N-Me-R-S-D-T-L-C-G-E-K-OH)2-DIG] (I: Ac-C[NMeR]SDTLCGEK-OH / II: Ac-C[NMeR]SDTLCGEK-OH; disulfide I:1-I:7, II:1-II:7 (inferred); linker I:10-II:10 via Diglycolyl (inferred))",,,2.02
"CC(=O)N[C@H]1CSSC(C)(C)[C@@H](C(=O)N[C@H](CCCCN)C(N)=O)NC(=O)[C@H](CC(C)C)NC(=O)[C@H]([C@@H](C)O)NC(=O)[C@H](CC(=O)O)NC(=O)[C@H](CO)NC(=O)[C@H](CCCNC(=N)N)N(C)C1=O [compound 202, Ac-C-N-Me-R-S-D-T-L-Pen-k-NH2] (Ac-C[NMeR]SDTL[Pen][dK]-NH2; disulfide 1-7)",42,,> 6
"CC(=O)N[C@H]1CSSC(C)(C)[C@@H](C(=O)N[C@@H](CCC(=O)O)C(=O)N[C@H](CCCCNC(=O)COCC(=O)NCCCC[C@@H](NC(=O)[C@H](CCC(=O)O)NC(=O)[C@H]2NC(=O)[C@H](CC(C)C)NC(=O)[C@H]([C@@H](C)O)NC(=O)[C@H](CC(=O)O)NC(=O)[C@H](CO)NC(=O)[C@H](CCCNC(=N)N)N(C)C(=O)[C@@H](NC(C)=O)CSSC2(C)C)C(N)=O)C(N)=O)NC(=O)[C@H](CC(C)C)NC(=O)[C@H]([C@@H](C)O)NC(=O)[C@H](CC(=O)O)NC(=O)[C@H](CO)NC(=O)[C@H](CCCNC(=N)N)N(C)C1=O [compound 205, (Ac-C-N-Me-R-S-D-T-L-Pen-E-k-NH2)2-DIG] (I: Ac-C[NMeR]SDTL[Pen]E[dK]-NH2 / II: Ac-C[NMeR]SDTL[Pen]E[dK]-NH2; disulfide I:1-I:7, II:1-II:7 (inferred); linker I:9-II:9 via Diglycolyl (inferred))",42,,> 6
"CC(=O)N[C@@H]1C(=O)N(C)[C@@H](CCCNC(=N)N)C(=O)N[C@@H](CO)C(=O)N[C@@H](CC(=O)O)C(=O)N[C@@H]([C@@H](C)O)C(=O)N[C@@H](CC(C)C)C(=O)N[C@H](C(=O)N[C@@H](Cc2c[nH]c3ccccc23)C(=O)N[C@H](CCC(=O)O)C(=O)N[C@H](CCCCNC(=O)COCC(=O)NCCCC[C@@H](NC(=O)[C@@H](CCC(=O)O)NC(=O)[C@H](Cc2c[nH]c3ccccc23)NC(=O)[C@H]2NC(=O)[C@H](CC(C)C)NC(=O)[C@H]([C@@H](C)O)NC(=O)[C@H](CC(=O)O)NC(=O)[C@H](CO)NC(=O)[C@H](CCCNC(=N)N)N(C)C(=O)[C@@H](NC(C)=O)C(C)(C)SSC2(C)C)C(N)=O)C(N)=O)C(C)(C)SSC1(C)C [compound 211, (Ac-Pen-N-Me-R-S-D-T-L-Pen-W-e-k-NH2)2-DIG] (I: Ac-[Pen][NMeR]SDTL[Pen]W[dE][dK]-NH2 / II: Ac-[Pen][NMeR]SDTL[Pen]W[dE][dK]-NH2; disulfide I:1-I:7, II:1-II:7 (inferred); linker I:10-II:10 via Diglycolyl (inferred))",>120,2.98,
"CC(=O)N[C@@H]1C(=O)N(C)[C@@H](CCCNC(=N)N)C(=O)N[C@@H](CO)C(=O)N[C@@H](CC(=O)O)C(=O)N[C@@H]([C@@H](C)O)C(=O)N[C@@H](CC(C)C)C(=O)N[C@H](C(=O)N[C@@H](Cc2ccc3ccccc3c2)C(=O)N[C@@H](CCC(=O)O)C(=O)N[C@H](CCCCNC(=O)COCC(=O)NCCCC[C@@H](NC(=O)[C@H](CCC(=O)O)NC(=O)[C@H](Cc2ccc3ccccc3c2)NC(=O)[C@H]2NC(=O)[C@H](CC(C)C)NC(=O)[C@H]([C@@H](C)O)NC(=O)[C@H](CC(=O)O)NC(=O)[C@H](CO)NC(=O)[C@H](CCCNC(=N)N)N(C)C(=O)[C@@H](NC(C)=O)C(C)(C)SSC2(C)C)C(N)=O)C(N)=O)C(C)(C)SSC1(C)C [compound 212, (Ac-Pen-N-Me-R-S-D-T-L-Pen-2-Nal-E-k-NH2)2-DIG] (I: Ac-[Pen][NMeR]SDTL[Pen][2Nal]E[dK]-NH2 / II: Ac-[Pen][NMeR]SDTL[Pen][2Nal]E[dK]-NH2; disulfide I:1-I:7, II:1-II:7 (inferred); linker I:10-II:10 via Diglycolyl (inferred))",>120,1.63,
